Measured values: patent US6833150B1, “Spray -dried bacteriocin powder with anti-microbial activity” (Teagasc, The Agriculture and Food Development Authority, priority 2001, dated 2004)

Columns and labels:
[1] = test system: L. lactis subsp lactis HP; experiment: Bacteriocin activity by agar well diffusion assay; format: cell-based, Lactococcus lactis; settings: for Bacteriocin activity: 10% reconstituted demineralized whey powder; for Lacticin 3147 activity: overnight incubation at 30° C.
Method: Bacteriocin activity was determined by the agar well diffusion assay as described by Parente and Hill (15). Molten agar was seeded with an indicator strain and dispensed into petri dishes. Wells of approximately 4.6 mm in diameter were bored in the agar and a 50 μl volume of a two fold serial dilution of a bacteriocin preparation was dispensed into each well. Bacteriocin solution was prepared by centrifuging the culture and heat treating the supernatant at 70° C. for 10 minutes prior to carrying out the dilution series. The plates were then incubated at either 30° C. or 37° C., depending on the indicator strain used. Bacteriocin activity was calculated as the inverse of the last dilution that gave a definite zone of clearance after overnight incubation. Activity units (AU) were expressed per milliliter (1/dilution, ×20).
(§1) Activity of both lacticin 3147 preparations was determined by the agar well diffusion assay as described by Parente and Hill (15). Molten agar was seeded with the indicator strain L. lactis subsp. lactis HP and dispensed into petri dishes. Wells of approximately 6.0 mm in diameter were bored in the agar and a 50 μl volume of a two fold serial dilution of a bacteriocin preparation was dispensed into each well. The plates were then incubated at 30° C. Bacteriocin activity was calculated as the inverse of the last dilution that gave a definite zone of clearance after overnight incubation. Activity units (AU) were expressed per milliliter (1/dilution, ×20). Activity may also be expressed as zone diameter (mm), where the diameter of the first zone (neat, undiluted sample) of the dilution series is recorded.

[2] = test system: Staph. aureus ATCC6538; experiment: High pressure and lacticin 3147 inactivation in milk (10% RSM); format: cell-based, Staphylococcus aureus
Method: For the inactivation of Staph. aureus ATCC6538 a liquid preparation of lacticin 3147 was prepared using hydrophobic adsorption chromatography. For studies on inactivation of L. innocua DPC1770 a food grade powdered preparation of lacticin 3147 was manufactured as described above with the following modification; a 1% demineralised whey powder solution was fermented with L. lactis subsp. lactis DPC3147 under pH controlled conditions of pH 6.0 for 18 hours.
Staph. aureus ATCC6538 cells were resuspended in 10% RSM and aliquoted into sterile 700 μl PCR eppendorfs prior to placing in sterile stomacher bags (Seward Ltd., London, UK). Ten millilitre volumes of L. innocua DPC1770 cells were resuspended in 20% reconstituted demineralised whey powder aliquoted into sterile stomacher bags. Samples were individually vacuum sealed prior to placing in the pressure vessel (Stansted Fluid Power Ltd., Stansted, England). The vessel consisted of a stainless-steel cylinder (37 mm diameter×300 mm height) filled with a 15% (v/v) caster oil in ethanol solution which acts as the hydrostatic pressurisation medium. Samples were treated for 30 min at 25° C. in the pressure range 150 to 600 MPa, in addition to a control sample being held at atmospheric pressure (0.1 MPa). […] The chamber temperature was determined by means of a thermoregulating system which circulated to maintain the chamber temperature.

[3] = test system: L. lactis HP; experiment: Effect of high pressure on lacticin 3147 activity (well diffusion assay); format: cell-based, Lactococcus lactis; settings: pressures greater than 400 MPa
Method: as §1
Pressurised and non-pressurised solutions of lacticin 3147 were heat treated at 80° C. for 10 minutes prior to carrying out activity determination by the well diffusion assay using L. lactis HP as an indicator strain.

[4] = test system: Gram-positive organisms, including Listeria, Clostridium spp., Enterococcus, Staphylococcus and Streptococcus; settings: cited from earlier work

Substance: lacticin 3147
- Bacteriocin activity ([1]; constant pH 6.0, 30° C.): 5120 AU/ml
- Bacteriocin activity ([1]; constant pH 7.0, 30° C.): 5120 AU/ml
- Bacteriocin activity ([1]; no pH control, 30° C.): 640 AU/ml
- Bacteriocin activity ([1]; pH held constant at pH 6.5, 30° C.): 10,240 AU/ml
- Effect of pasteurisation on bacteriocin activity ([1]; 72° C. for 15 sec): no effect
- Bacteriocin activity during manufacture ([1]; after evaporation at 60° C. from 10% to 40% total solids): 40,960 AU/ml
- Activity of the concentrate following overnight crystallisation ([1]; cooled from 32° C. at 1° C. per hour overnight): remained stable
- Bacteriocin activity during manufacture ([1]; following the pH controlled 170 L fermentation (pH 6.5, 10% total solids)): 10,240 AU/ml
- Lacticin 3147 activity ([1]; growth medium 10% reconstituted demineralised whey powder): 1,280 AU/ml
- Lacticin 3147 activity ([1]; growth medium 10% reconstituted demineralised whey powder, listed as Lacticin 3147): 1280 AU/ml
- Lacticin 3147 activity ([1]; growth medium 10% reconstituted skimmed milk powder): 1,280 AU/ml
- Lacticin 3147 activity ([1]; growth medium 10% reconstituted skimmed milk powder, listed as Lacticin 3147): 1280 AU/ml
- Lacticin 3147 activity ([1]; growth medium Cheddar cheese whey): 2,560 AU/ml
- Lacticin 3147 activity ([1]; growth medium Cheddar cheese whey, listed as Lacticin 3147): 2560 AU/ml
- Lacticin 3147 activity ([1]; growth medium LM17): 2,560 AU/ml
- Lacticin 3147 activity ([1]; growth medium LM17, listed as Lacticin 3147): 2560 AU/ml
- Lacticin 3147 activity ([1]; growth medium TY broth): 640 AU/ml
- Lacticin 3147 activity ([1]; growth medium whey protein concentrate (WPC35)): 320 AU/ml
- Lacticin 3147 activity ([1]; growth medium whole milk): 2,560 AU/ml
- Lacticin 3147 activity ([1]; growth medium whole milk, listed as Lacticin 3147): 2560 AU/ml
- Lacticin 3147 activity expressed as AU/g of dry matter throughout manufacture ([1]; remained constant through pasteurisation, evaporation, crystallisation, spray drying): 102,400 AU/g
- logs of kill ([2]; combination of 250 MPa and lacticin 3147, 30 min at 25° C.): more than 6 logs
- log reduction ([2]; concentrated lacticin 3147 from culture supernatant alone): 1 log
- change in bacteriocin activity after pressure treatment [3]: doubling of activity
- inhibitory spectrum [4]: inhibitory to a wide range of Gram-positive organisms
